{"source": "patent US7195769B2", "about": "“Pharmaceutical compositions of anti-tubercular drugs and process for their preparation” (Panacea Biotec Limited, priority 2000, dated 2007)", "assay": "pH dependence of rifampicin degradation in presence of isoniazid", "assay_type": "physicochemical", "text": "Thereafter, above pH 3 the degradation is minimal.", "data": [{"smiles": "CO[C@H]1/C=C/O[C@@]2(C)Oc3c(C)c(O)c4c(O)c(c(/C=N/N5CCN(C)CC5)c(O)c4c3C2=O)NC(=O)/C(C)=C\\C=C\\[C@H](C)[C@H](O)[C@@H](C)[C@@H](O)[C@@H](C)[C@H](OC(C)=O)[C@@H]1C", "note": "[rifampicin]", "values": [{"measurement": "degradation of rifampicin in presence of isoniazid", "setting": "above pH 3", "value": "minimal"}, {"measurement": "degradation of rifampicin in presence of isoniazid", "setting": "pH around 1", "value": "minimum"}, {"measurement": "degradation of rifampicin in presence of isoniazid", "setting": "pH between 2 and 3", "value": "increases abruptly"}]}]}
